Measurements published in patent publication US8809331B2 (Genentech, Inc., priority 2011, dated 2014).

These compounds were tested against T1, LRRK2 (Homo sapiens, UniProt Q5S007, G2019S) (assay: In Vitro LRRK2 LabChip Assay (LRRK2 Ki)). Conditions: Table 5 compounds (formula I).
T1 construct: purchased Invitrogen PV4882
Format: biochemical

T1 sequence (Q5S007 whole entry G2019S): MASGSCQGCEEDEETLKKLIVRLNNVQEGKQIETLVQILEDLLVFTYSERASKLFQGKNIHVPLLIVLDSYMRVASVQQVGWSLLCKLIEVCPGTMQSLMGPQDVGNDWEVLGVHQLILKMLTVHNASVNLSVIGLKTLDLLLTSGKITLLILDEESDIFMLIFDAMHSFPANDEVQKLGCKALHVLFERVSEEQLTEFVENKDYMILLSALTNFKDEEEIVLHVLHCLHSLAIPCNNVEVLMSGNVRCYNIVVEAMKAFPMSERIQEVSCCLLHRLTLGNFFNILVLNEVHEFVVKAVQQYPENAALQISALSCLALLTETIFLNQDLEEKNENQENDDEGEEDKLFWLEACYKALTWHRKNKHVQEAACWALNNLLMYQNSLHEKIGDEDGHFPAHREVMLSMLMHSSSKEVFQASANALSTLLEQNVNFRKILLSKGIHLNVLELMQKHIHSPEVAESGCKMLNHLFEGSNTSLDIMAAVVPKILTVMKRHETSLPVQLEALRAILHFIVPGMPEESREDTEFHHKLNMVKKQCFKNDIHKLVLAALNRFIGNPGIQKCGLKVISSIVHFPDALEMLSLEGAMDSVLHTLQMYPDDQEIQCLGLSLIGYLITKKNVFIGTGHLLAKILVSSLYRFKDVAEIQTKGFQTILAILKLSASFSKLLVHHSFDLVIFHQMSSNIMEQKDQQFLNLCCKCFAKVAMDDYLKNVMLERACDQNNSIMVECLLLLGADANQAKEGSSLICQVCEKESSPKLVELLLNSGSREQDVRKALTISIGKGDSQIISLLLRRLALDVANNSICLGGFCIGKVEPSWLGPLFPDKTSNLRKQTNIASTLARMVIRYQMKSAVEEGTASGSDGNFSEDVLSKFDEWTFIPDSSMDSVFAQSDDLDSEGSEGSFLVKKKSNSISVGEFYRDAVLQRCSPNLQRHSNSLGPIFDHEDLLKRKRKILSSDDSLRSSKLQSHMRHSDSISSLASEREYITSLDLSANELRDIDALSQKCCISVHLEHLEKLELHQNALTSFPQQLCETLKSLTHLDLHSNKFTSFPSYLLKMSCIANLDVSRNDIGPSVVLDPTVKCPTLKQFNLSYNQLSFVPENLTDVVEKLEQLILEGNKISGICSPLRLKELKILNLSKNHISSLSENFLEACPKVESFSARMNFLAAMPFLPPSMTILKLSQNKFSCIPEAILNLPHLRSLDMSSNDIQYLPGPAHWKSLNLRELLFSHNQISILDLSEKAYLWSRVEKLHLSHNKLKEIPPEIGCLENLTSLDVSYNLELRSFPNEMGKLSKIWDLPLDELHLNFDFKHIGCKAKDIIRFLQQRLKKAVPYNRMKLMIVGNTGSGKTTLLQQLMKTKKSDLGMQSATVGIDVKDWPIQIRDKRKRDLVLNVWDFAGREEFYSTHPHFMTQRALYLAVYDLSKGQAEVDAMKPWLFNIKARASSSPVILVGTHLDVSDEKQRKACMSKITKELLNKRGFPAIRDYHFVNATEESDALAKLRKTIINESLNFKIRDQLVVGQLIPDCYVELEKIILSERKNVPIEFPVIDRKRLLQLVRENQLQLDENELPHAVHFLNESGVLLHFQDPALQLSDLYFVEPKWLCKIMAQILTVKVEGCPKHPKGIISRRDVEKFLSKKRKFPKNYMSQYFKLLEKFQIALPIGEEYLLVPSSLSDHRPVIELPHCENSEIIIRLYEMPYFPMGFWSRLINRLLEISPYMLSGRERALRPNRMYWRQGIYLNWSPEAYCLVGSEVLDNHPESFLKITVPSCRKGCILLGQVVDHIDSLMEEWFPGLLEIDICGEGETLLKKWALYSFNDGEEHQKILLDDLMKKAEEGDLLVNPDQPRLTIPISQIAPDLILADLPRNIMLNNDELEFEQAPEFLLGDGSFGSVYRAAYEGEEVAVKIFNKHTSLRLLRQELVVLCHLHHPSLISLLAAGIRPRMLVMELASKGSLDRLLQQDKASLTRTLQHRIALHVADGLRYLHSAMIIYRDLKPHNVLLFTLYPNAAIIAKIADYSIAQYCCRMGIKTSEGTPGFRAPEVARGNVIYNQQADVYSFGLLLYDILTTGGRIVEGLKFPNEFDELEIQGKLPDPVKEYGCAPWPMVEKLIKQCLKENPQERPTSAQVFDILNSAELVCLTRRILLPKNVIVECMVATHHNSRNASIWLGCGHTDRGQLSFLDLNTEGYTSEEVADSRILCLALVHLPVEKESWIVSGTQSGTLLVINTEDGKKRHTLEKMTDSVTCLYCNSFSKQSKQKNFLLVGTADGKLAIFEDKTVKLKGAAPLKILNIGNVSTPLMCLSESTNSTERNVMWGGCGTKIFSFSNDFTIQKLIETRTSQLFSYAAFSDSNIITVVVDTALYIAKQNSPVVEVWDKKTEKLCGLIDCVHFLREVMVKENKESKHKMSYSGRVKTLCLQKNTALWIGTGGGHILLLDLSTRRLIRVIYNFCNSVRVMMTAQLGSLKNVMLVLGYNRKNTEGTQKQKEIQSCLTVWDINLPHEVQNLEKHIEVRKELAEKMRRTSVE

Ki [nM]	Structure (SMILES)
1.03	CCNc1nc(Nc2cc(OC)c(C(=O)N3CCC(F)(F)C3)cc2OCCF)ncc1C(F)(F)F [Compound 61, (3,3-Difluoro-pyrrolidin-1-yl)-[4-(4-ethylamino-5-trifluoromethyl-pyrimidin-2-ylamino)-5-(2-fluoro-ethoxy)-2-methoxy-phenyl]-methanone]
1.21	CCNc1nc(Nc2cc(C)c(C(=O)N3CC[C@H](F)C3)cc2OC)ncc1C#N [Compound 97, 4-Ethylamino-2-[4-((S)-3-fluoro-pyrrolidine-1-carbonyl)-2-methoxy-5-methyl-phenylamino]-pyrimidine-5-carbonitrile]
1.68	CCNc1nc(Nc2cc(OCF)c(C(=O)N3CCCC3)cc2Cl)ncc1C(F)(F)F [Compound 111, [5-Chloro-4-(4-ethylamino-5-trifluoromethyl-pyrimidin-2-ylamino)-2-fluoromethoxy-phenyl]-pyrrolidin-1-yl-methanone]
3.66	CNc1nc(Nc2cc(C)c(C(=O)N3CCOCC3)cc2OC(C)C)ncc1C(F)(F)F [Compound 99, [5-Isopropoxy-2-methyl-4-(4-methylamino-5-trifluoromethyl-pyrimidin-2-ylamino)-phenyl]-morpholin-4-yl-methanone]
7.55	CNc1nc(Nc2cc(F)c(C(=O)N(C)C3CCN(C)CC3)cc2OC)ncc1C(F)(F)F [Compound 7, 2-Fluoro-5-methoxy-N-methyl-4-(4-methylamino-5-trifluoromethyl-pyrimidin-2-ylamino)-N-(1-methyl-piperidin-4-yl)-benzamide]
2.53	CNc1nc(Nc2cc(C(F)(F)F)c(C(=O)N3CCOCC3)cc2OC)ncc1C(F)(F)F [Compound 67, [5-Methoxy-4-(4-methylamino-5-trifluoromethyl-pyrimidin-2-ylamino)-2-trifluoromethyl-phenyl]-morpholin-4-yl-methanone]
14.5	CNc1nc(Nc2cc(OC)c(C(=O)N(C)c3cnn(C)c3)cc2Cl)ncc1C(F)(F)F [Compound 55, 5-Chloro-2-methoxy-N-methyl-4-(4-methylamino-5-trifluoromethyl-pyrimidin-2-ylamino)-N-(1-methyl-1H-pyrazol-4-yl)-benzamide]
27.1	CNc1nc(Nc2cc(OC(F)F)c(C(=O)N3CCOCC3)cc2Cl)ncc1C(F)(F)F [Compound 79, [5-Chloro-2-difluoromethoxy-4-(4-methylamino-5-trifluoromethyl-pyrimidin-2-ylamino)-phenyl]-morpholin-4-yl-methanone]
4.65	CCNc1nc(Nc2cc(F)c(C(=O)N3CCOCC3)cc2Cl)ncc1C(F)(F)F [Compound 74, [5-Chloro-4-(4-ethylamino-5-trifluoromethyl-pyrimidin-2-ylamino)-2-fluoro-phenyl]-morpholin-4-yl-methanone]
0.31	CCNc1nc(Nc2cc(F)c(C(=O)NCC3(O)CC3)cc2OC)ncc1C(F)(F)F [Compound 115, 4-(4-Ethylamino-5-trifluoromethyl-pyrimidin-2-ylamino)-2-fluoro-N-(1-hydroxy-cyclopropylmethyl)-5-methoxy-benzamide]
6.42	CCNc1nc(Nc2cc(OC)c(C(=O)NCC(C)(C)O)cc2F)ncc1C(F)(F)F [Compound 28, 4-(4-Ethylamino-5-trifluoromethyl-pyrimidin-2-ylamino)-5-fluoro-N-(2-hydroxy-2-methyl-propyl)-2-methoxy-benzamide]
0.31	[2H]C1([2H])C(Nc2nc(Nc3cc(F)c(C(=O)N4CCOCC4)cc3OC)ncc2C(F)(F)F)C1([2H])[2H] [Compound 123, (4-(4-(2,3-tetradeutero-cyclopropylamino)-5-(trifluoromethyl)pyrimidin-2-ylamino)-2-fluoro-5-methoxyphenyl)(morpholino)methanone]
2.97	CCOc1nc(Nc2cc(C)c(C(=O)N3CCOCC3)cc2OC)ncc1Cl [Compound 94, [4-(5-Chloro-4-ethoxy-pyrimidin-2-ylamino)-5-methoxy-2-methyl-phenyl]-morpholin-4-yl-methanone]
10.4	CCNc1nc(Nc2cc(F)c(C(=O)N3CC[C@H](F)C3)cc2OC)ncc1C#N [Compound 80, 4-Ethylamino-2-[5-fluoro-4-((S)-3-fluoro-pyrrolidine-1-carbonyl)-2-methoxy-phenylamino]-pyrimidine-5-carbonitrile]
1.3	CCNc1nc(Nc2cc(F)c(C(=O)N3CC4(CCO4)C3)cc2OC)ncc1C(F)(F)F [Compound 34, [4-(4-Ethylamino-5-trifluoromethyl-pyrimidin-2-ylamino)-2-fluoro-5-methoxy-phenyl]-(1-oxa-6-aza-spiro[3.3]hept-6-yl)-methanone]
4.97	CNc1nc(Nc2cc(C)c(C(=O)N3CCOCC3)cc2F)ncc1C(F)(F)F [Compound 73, [5-Fluoro-2-methyl-4-(4-methylamino-5-trifluoromethyl-pyrimidin-2-ylamino)-phenyl]-morpholin-4-yl-methanone]
20.9	CNc1nc(Nc2ccc(C(=O)N3CCOCC3)cc2F)ncc1C(F)(F)F [Compound 22, [3-Fluoro-4-(4-methylamino-5-trifluoromethyl-pyrimidin-2-ylamino)-phenyl]-morpholin-4-yl-methanone]
1.46	CNc1nc(Nc2cc(OC)c(C(=O)N3CCC(F)(F)C3)cc2OCCF)ncc1C(F)(F)F [Compound 39, (3,3-Difluoro-pyrrolidin-1-yl)-[5-(2-fluoro-ethoxy)-2-methoxy-4-(4-methylamino-5-trifluoromethyl-pyrimidin-2-ylamino)-phenyl]-methanone]
2.1	CNc1nc(Nc2cc(F)c(C(=O)N3C[C@@H]4C[C@H]3CO4)cc2OC)ncc1C(F)(F)F [Compound 11, [2-Fluoro-5-methoxy-4-(4-methylamino-5-trifluoromethyl-pyrimidin-2-ylamino)-phenyl]-(1S,4S)-2-oxa-5-aza-bicyclo[2.2.1]hept-5-yl-methanone]
14.5	COc1nc(Nc2ccc(C(=O)N3CCOCC3)cc2OCCF)ncc1Cl [Compound 57, [4-(5-Chloro-4-methoxy-pyrimidin-2-ylamino)-3-(2-fluoro-ethoxy)-phenyl]-morpholin-4-yl-methanone]
3.41	CNc1nc(Nc2cc(F)c(C(=O)N3CCN4CCCC4C3)cc2OC)ncc1C(F)(F)F (stereo not drawn) [Compound 4, [2-Fluoro-5-methoxy-4-(4-methylamino-5-trifluoromethyl-pyrimidin-2-ylamino)-phenyl]-(hexahydro-pyrrolo[1,2-a]pyrazin-2-yl)-methanone]
3.49	COc1cc(C(=O)N2CCOCC2)c(F)cc1Nc1ncc(C(F)(F)F)c(NC(C)C)n1 [Compound 32, [2-Fluoro-4-(4-isopropylamino-5-trifluoromethyl-pyrimidin-2-ylamino)-5-methoxy-phenyl]-morpholin-4-yl-methanone]
9.12	CCNc1nc(Nc2cc(C)c(C(=O)N3CC[C@H](F)C3)cc2Cl)ncc1C#N [Compound 107, 2-[2-Chloro-4-((S)-3-fluoro-pyrrolidine-1-carbonyl)-5-methyl-phenylamino]-4-ethylamino-pyrimidine-5-carbonitrile]
6.79	CNc1nc(Nc2cc(Cl)c(C(=O)N3CCOCC3)cc2C)ncc1C(F)(F)F [Compound 126, [2-Chloro-5-methyl-4-(4-methylamino-5-trifluoromethyl-pyrimidin-2-ylamino)-phenyl]-morpholin-4-yl-methanone]
